Values quoted from earlier work, collected in patent US20090148509A1, “ENCAPSULATION AND DEAGGREGATION OF POLYENE ANTIBIOTICS USING POLY(ETHYLENE GLYCOL)-PHOSPHOLIPID MICELLES” (WISCONSIN ALUMNI RESEARCH FOUNDATION, priority 2002, published 2009).

Legend:
[1] = surfactant:AmB

Row | critical aggregation concentration of AmB in water | Compound | molar ratio required to efficiently deaggregate AmB [1]
1 | about 1.0 μg/ml | C[C@@H]1[C@H](O)[C@@H](C)/C=C/C=C/C=C/C=C/C=C/C=C/C=C/[C@H](O[C@@H]2O[C@H](C)[C@@H](O)[C@H](N)[C@@H]2O)C[C@@H]2O[C@](O)(C[C@@H](O)C[C@@H](O)[C@H](O)CC[C@@H](O)C[C@@H](O)CC(=O)O[C@H]1C)C[C@H](O)[C@H]2C(=O)O [AmB, Amphotericin B] | 
2 |  | sodium deoxycholate | greater than 40
